Assay results taken from PMC4559881 (Molecular Neurodegeneration, 2015).

Tests used:
[1] = Dog PK/PD study: NB-360 exposure in blood and CSF; type: in vivo; conditions: male, Beagle, blood, po, 0.5 mg/kg p.o.
Procedure: Blood and CSF were sampled before treatment (at -24 and at -1 h) and at various time points after oral dosing, up to 168 h.
(§1) Brain samples were homogenized with 2 mM KH2PO4 buffer (approx. 1/2, w/v). […] The LLOQ ranged between 0.4 and 2 ng/mL in blood and 1.2 ng/g and 6 ng/g in brain.
Rat studies used male Charles River Sprague-Dawley rats of approx. 300 g body weight. Female transgenic APP51/16 mice (C57BL/6 background strain) were bred in-house. APP51/16 mice express human wild-type APP751 under the control of a Thy-1 expression cassette in brain neurons, and are characterized by mostly cortical, but few vascular amyloid-β deposits. […] Dosing was per os in a dose volume of 10 ml/kg for mice and 5 ml/kg for rats. […] Rodents were deeply anesthetized for CSF sampling from the cisterna magna, accessed through the exposed atlanto-occipital membrane. CSF was harvested into protein lo-bind Eppendorf tubes and frozen on dry ice. Animals were decapitated while anesthetized and blood and brain samples collected. Brains were briefly rinsed in PBS, quickly wet-dissected and samples frozen on a metal plate precooled on dry ice. All samples were stored at -80 ° C until analysis. The dog study was carried out at Charles River Laboratories, Canada. Male dogs were used with n = 4 per group. A cannula with an access port was implanted under anesthesia, to allow serial CSF sampling from the lateral ventricle. […]

Aβ40 [2] = assay: Dog PK/PD study: Aβ40 in CSF and plasma; type: in vivo
Procedure: The mean (± SD) level of Aβ40 in the CSF prior to dosing was 5991 ± 1199 pg/ml (2 sampling times -24 h and -1 h, n = 7), and the predose plasma Aβ40 level was 261 ± 13 pg/ml (mean ± SD, n = 4, -1 h). […] All dogs responded strongly to the treatment, CSF Aβ40 was reduced by approximately 80 % from 12 to 48 h post dose and slowly returned to baseline (Fig. 3b). […] Furthermore, the available data were used for a calculation of the Aβ40 clearance rate from dog CSF.
Aβ38, 40 and 42 were determined using the electro-chemiluminescence immuno assay kits from Meso Scale Discovery (Rockville, MD, USA) in either singlet or triplex format. Samples and standards were prepared according to the manufactures protocols. The kit based on the antibody 4G8 was used for rat forebrain and CSF samples, and kits based on 6E10 were used for dog CSF or plasma and APP51/16 brain and CSF samples. Soluble APPα and sAPPβ from APP51/16 mice were determined from the 100000xg supernatant and analyzed with Meso Scale Discovery commercial kits. C-terminal fragments C83 and C99 were determined from Western blots. Forebrain homogenates dephosphorylated with lambda protein phosphatase as described and run on a 10 % Tris-bicine gel with 8 M urea. After transfer to Immobilon P membranes (Bio-Rad Bedford MA USA), bands were probed with APP C8 antibody (recognizing the C-terminus of APP) and detected with goat anti-mouse IgG Fab fragment AlexaFluor680 (Invitrogen). The same gel was used to visualize Aβ1-38, 1-40, and 1-42 using the N-terminal antibody beta1 and goat anti rabbit IgG IRdye 800CW (Odyssey). Full-length human APP was detected using an in house immunoassay based on the MSD ECL system as described.

Aβ40 [3] = assay: Pre-plaque APP51/16 mice: brain Aβ40 after single or 4-day oral dosing; type: in vivo, mouse
Procedure: This strain of transgenic mice was selected since it resembles the situation in sporadic human AD, where no APP mutation is present. […] Next, we dosed the compound p.o. once daily for 4 days at 2 doses to pre-plaque APP51/16 mice (age: 8 months) in order to achieve steady state exposure, and measured the Aβ40 reduction 24 h after the last dose. […] In order to achieve a >50 % reduction of brain Aβ over a 24 h period in mice we selected this dose for a chronic study.
Frozen rodent forebrains were homogenized in 9 volumes of ice-cold Tris-buffered saline (pH 7.4) containing Complete protease inhibitor cocktail (Roche Diagnostics, Penzberg, Germany) using a Sonifier 450 (Branson) and stored in aliquots at -80 °C. Triton X-100 soluble Aβ was extracted by mixing 50 μl 2 % Triton X-100 with 50 μl homogenate, incubating for 15 min on ice with vortexing, followed by ultracentrifugation at 100000xg for 15 min. The clear supernatant was diluted to a final forebrain dilution of 1:100 and used for analysis. For the extraction of insoluble amyloid peptides, 50 μl forebrain homogenate was mixed with 117 μl of 100 % formic acid and stored on ice for 15 min with vortexing. Samples were neutralized with 950 μl 1 M Tris base, containing Complete protease inhibitor cocktail (Roche, Basle, Switzerland) and stored overnight at room temperature. The supernatant after 15 min centrifugation at 14000 rpm was used for analysis.
Aβ38, 40 and 42 were determined using the electro-chemiluminescence immuno assay kits from Meso Scale Discovery (Rockville, MD, USA) in either singlet or triplex format. Samples and standards were prepared according to the manufactures protocols. […] Soluble APPα and sAPPβ from APP51/16 mice were determined from the 100000xg supernatant and analyzed with Meso Scale Discovery commercial kits. C-terminal fragments C83 and C99 were determined from Western blots. […] After transfer to Immobilon P membranes (Bio-Rad Bedford MA USA), bands were probed with APP C8 antibody (recognizing the C-terminus of APP) and detected with goat anti-mouse IgG Fab fragment AlexaFluor680 (Invitrogen). […]

APP51/16 transgenic mice = assay: Chronic 6-week treatment of APP51/16 mice: APP metabolites, Aβ deposition and neuroinflammation; type: in vivo, mouse; conditions: relative to vehicle-treated mice
[4] = Pharmacokinetics after i.v. and oral application, rat
Procedure: Pharmacokinetic studies used male Sprague Dawley rats, C57BL6 mice and Beagle dogs, obtained from Charles River (France, rodents) and Marshall (Italy, dogs). […] Blood was collected i.v., by sublingual bleeding or at sacrifice whereas a serial blood sampling allowed obtaining individual PK profiles in these species. Blood samples were taken between 5 min (intravenous) and 15 min (oral) up to 24 h (mice), 48 h (rat) and 408 h (dog).
The absorption and disposition parameters were estimated by a non-compartmental analysis of the mean blood concentration (n = 3 mice) or individual concentration (rats, dogs) versus time profile after oral and intravenous administration.

[5] = Chronic 6-week treatment of APP51/16 mice: NB-360 blood exposure; conditions: female, APP51/16 (C57BL/6 background), mouse, po, 100 μmol/kg
Procedure: as §1
Rat studies used male Charles River Sprague-Dawley rats of approx. 300 g body weight. Female transgenic APP51/16 mice (C57BL/6 background strain) were bred in-house. APP51/16 mice express human wild-type APP751 under the control of a Thy-1 expression cassette in brain neurons, and are characterized by mostly cortical, but few vascular amyloid-β deposits. […] Dosing was per os in a dose volume of 10 ml/kg for mice and 5 ml/kg for rats. […] Rodents were deeply anesthetized for CSF sampling from the cisterna magna, accessed through the exposed atlanto-occipital membrane. CSF was harvested into protein lo-bind Eppendorf tubes and frozen on dry ice. Animals were decapitated while anesthetized and blood and brain samples collected. Brains were briefly rinsed in PBS, quickly wet-dissected and samples frozen on a metal plate precooled on dry ice. All samples were stored at -80 ° C until analysis. The dog study was carried out at Charles River Laboratories, Canada. Male dogs were used with n = 4 per group. A cannula with an access port was implanted under anesthesia, to allow serial CSF sampling from the lateral ventricle. Dogs were allowed to recover from the surgery for 2 weeks before the start of the experiment.

[6] = male, Sprague Dawley, blood, iv, 2 umol/kg

Cc1cc(C#N)cnc1C(=O)Nc1ccc(F)c([C@]2(C)CO[C@@](C)(C(F)(F)F)C(N)=N2)c1 [NB-360]
concentration at 168 h [1]: 23 ± 31 nM
time to reach the maximum effect on CSF Aβ (Aβ40 [2]; 1.1 μmol/kg (0.5 mg/kg)): around 12 h
time at which CSF Aβ40 reached baseline (Aβ40 [2]; 0.5 mg/kg p.o.): about 120 h
Plasma Aβ40 change (Aβ40 [2]; 0.5 mg/kg p.o., after 1 h): -42%
Plasma Aβ40 change (Aβ40 [2]; 0.5 mg/kg p.o., after 12 h): -70%
CSF Aβ40 reduction (Aβ40 [2]; 0.5 mg/kg p.o., from 12 to 48 h post dose): approximately 80%
IC50 (Aβ40 [2]; Canis lupus familiaris, read-out: in vivo IC50 of NB-360 in blood for the reduction of Aβ40 in CSF, PK/PD modelling): 59 ± 13 nM
Aβ reduction, approximate area under the effect curve over a 24 h period (Aβ40 [2]; from the values at 12 and 36 h): 70-75%
lowering of TX-100 soluble brain Aβ40 (Aβ40 [3]; pre-plaque APP51/16 mice (3-5 months), 30 μmol/kg single oral dose, 4 h): 79.6%
reduction of forebrain Aβ (Aβ40 [3]; pre-plaque APP51/16 mice (8 months), 30 μmol/kg/d p.o. 4 days, 24 h after last dose): 15.1%
Aβ40 reduction in forebrain (Aβ40 [3]; pre-plaque APP51/16 mice (8 months), 100 μmol/kg/d p.o. 4 days, 24 h after last dose): 52.1%
number of GFAP positive cell clusters in the cortex (APP51/16 transgenic mice): substantially lower
Vol. of Distribution ([4]; 2 μmol/kg i.v.): 10.2 L/kg
clearance [4, 6]: 52 mL/min/kg
half-life [4, 6]: 2.7 h
bioavailability ([4]; male, Sprague Dawley, blood, po, 6 umol/kg): 92%
concentration at 4 h [5]: 3200 nM
concentration at 24 h [5]: 130 nM
